Columns and labels:
[1] = tested on: Solid Ehrlich Carcinoma (SEC); assay: In vivo antitumor activity against Solid Ehrlich Carcinoma; parameters: species or system Swiss albino mice; conditions: SEC-bearing mice, 5 mg/kg BW I.P.
Protocol: To examine the in vivo anticancer activity of compound 9d, adult female Swiss albino mice (30 mice) inoculated with I.P. injection of Solid Ehrlich Carcinoma (SEC) tumour cell lines in a volume of 0.2 ml physiological saline contains 1 × 10^6 viable cells for 24 h.
These mice were randomly divided into four groups (7 mice/group). […] Bodyweight and survival were recorded daily until the 24th day in both treated and control groups. At the end of the experiment, the blood of each group was collected under light anaesthesia for the estimation of hematological and biochemical assays. The anaesthetised animals were then sacrificed to evaluate of the antitumor activity and to conduct hematological, biochemical, and histopathological assays, Figure 3.
Adult female Swiss albino mice purchased from Theodor Bilharzia Research Institute, Giza, Egypt, with an average bodyweight of (18–23) g were used. Mice were housed under constant conditions of 12 h light/dark cycle in a […], with free access to standard laboratory mice food and water. All procedures related to care and maintenance of the animals were performed according to the international guiding principles for animal research and approved by the Faculty of Science, Suez Canal University bioethics and animal ethics committee (Approval number REC-07–2021).
Solid Ehrlich carcinoma (SEC) was purchased from the National Cancer Institute (Cairo University, Egypt). The tumour cell line was proliferated in mice through serial intraperitoneal (I.P.) transplantation of a volume of 0.2 ml physiological saline contains 1 × 10^6 viable cells for 24 h. SEC cells were collected 7 days after I.P. implantation. The harvested cells were diluted with saline to obtain a concentration of 5 × 10^6 viable SEC cells/mL. A volume of 0.2 ml saline contains 1 × 10^6 SEC cells that were I.P. implanted into each normal mouse. SEC cells (1 × 10^6 tumour cells/mouse) were implanted subcutaneously into the right thigh of the hind limb.
(§1) The experimental animals were randomly divided into four groups. Group 1 served as the normal saline control (5 ml/kg B.Wt., I.P.). Group 2 served as the SEC control (1 × 10^6 cells/mouse). Group 3 served as the compound-treated group (5 mg/kg B.Wt., I.P.). […] Bodyweight and survival were recorded daily until the 24th day in both treated and control groups. At the end of the experiment, the blood of each group was collected under light anaesthesia to the estimate of hematological and biochemical assays. The anaesthetised animals were then sacrificed for evaluation of the antitumor activity and histopathological examination.
It includes tumour volume, weight, and tumour inhibition ratio (TIR%). Time interval measurements of tumour volume using digital Vernier calliper (Tricle Brand, Shanghai, China). Measure tumour length and width using a clipper and then calculate tumour volume using formulations V = (L × W × W)/2, where V is tumour volume, W is tumour width, L is tumour length. While TIR% was calculated according to the following equation Tumor volume (Control)−Tumor volume (treated)/Tumor volume (control)× 100.

Calf thymus DNA = assay: DNA intercalation assay (DNA/methyl green colorimetric assay); assay type: binding; conditions: three independent experiments
Protocol: (§2) The data represented the mean of three independent experiments in triplicate and were expressed as means ± SD. […]
4.2.2. DNA intercalation assay (DNA/methyl green colorimetric assay)
Affinity of some compounds for DNA-binding was examined in vitro using DNA/methyl green assay using doxorubicin as a positive control. In this test, a mixture of methyl green (20 mg) and Calf thymus DNA (10 mg) (Sigma– Aldrich) were suspended in 0.05 M TrisHCl buffer (100 mL, pH 7.5) containing 7.5 mM MgSO4. This mixture was stirred continuously for 24 h at 37 °C. Then, ethanolic solution of the test compounds was pitted into the wells of a 96-well microtiter tray at a concentration of 10, 100 and 1000 µM. The excess solvent was removed from each well under vacuum, with subsequent addition of 200 µL of the DNA/methyl green solution. The test samples were incubated for 24 h in dark at ambient temperature. After that, absorbance of each sample was determined at 642.5–645 nm. In this test, the methyl green dye reversibly binds to DNA to form persistent colored complex of DNA/methyl green. This color still stables at neutral pH. When the DNA intercalators were added, the methyl green was displaced from DNA with addition of H2O molecule to the dye resulting in formation of the colorless carbinol leading to a decrease in spectrophotometric absorbance. ΔA value (the difference between DNA/methyl green complex and free cabinol) provides the simplest means for detecting the DNA-binding affinity and relative binding strength. IC50′s were determined by linear regression of data plotted on a semi -log scale and the data were compared with doxorubicin as standard DNA intercalator . […]

[2] = tested on: HCT-116 cells (colorectal carcinoma); assay: MTT anti-proliferative assay, HCT-116; assay type: cell-based, human; conditions: Homo sapiens, HCT-116, MTT, mean ± SD of three separate experiments; read-out: In vitro Cytotoxicity IC50 HCT-116
Protocol: Anti-proliferative activities of the target compounds were assessed via the standard MTT method[38–40] against three cancer cell lines, namely, hepatocellular carcinoma (HepG-2), colorectal carcinoma (HCT-116), and human breast adenocarcinoma (MCF-7). Doxorubicin was used in this test as a positive control.
Anti-proliferative activity of the synthesised compounds was estimated using the MTT assay protocol[8]^,[38–40] as shown in Supplementary data.
4.2.1. In vitro anti-proliferative activity against MCF-7, HepG-2 and HCT-116 The cells were cultured in RPMI-1640 medium supplemented with 10% fetal bovine serum (FBS), penicillin (100 unit /mL) and streptomycin sulphate (100µg/mL) at 37 °C in a 5% CO2 incubator.
Then, cells were dropped in 96-well plates at a density of 3-8 × 10^3 cells/well and incubated for two days in a 5% CO2 incubator at 37 °C. Then, the cells were treated with the synthesized compounds and the cell cultures were continued incubated for 24 h. However, Different concentrations of the compound under test (0.0, 5.0, 12.5, 25.0 and 50 mg/ml) were added to the cell monolayer. Then, (3-[4,5-dimethylthiazol-2-yl]- 2,5-diphenyltetrazolium bromide) MTT solution (20 µl, 5mg/mL) was added to each well and incubated for additional 4 h. The formed purple crystals of MTT-formazan were dissolved in 100 µl DMSO each well; the absorbance of each well was measured at 570 nm using a plate reader (EXL 800, USA). All of the compounds were tested three times. The relative cell viability in percentage was calculated. The results for IC50 values of the active compounds are […]
as §2
of the cells could survive. […]

[3] = Histopathological examination of liver tissues of SEC-bearing mice; assay type: in vivo, Swiss albino mice; conditions: H&E stain, ×200
Protocol: as §1
Specimens of liver-sacrificed mice were fixed in 10% saline formalin. The fixed liver specimens were dehydrated in ascending series of ethyl alcohol and embedded in paraffin. Sections at […] thicknesses were stained with haematoxylin and eosin and examined under the light microscope.

[4] = Hematological and biochemical blood assays in SEC-bearing mice; assay type: in vivo, Swiss albino mice; conditions: 5 mg/kg BW, Mean ± SEM (n = 7)
Protocol: At the end of the experiment, animals from different groups were sacrificed, and blood samples were collected for hematological parameters, including Hb, RBC’s, and WBC’s levels, and serum for determination of liver enzymes ALT, AST levels, and proteins.
as §1
At the end of the experiment, animals from different groups were sacrificed, and blood samples were collected for hematological parameters including, Hb, RBC’s, and WBC’s levels, and serum for determination of liver enzymes ALT, AST levels, and proteins. Complete blood count (CBC) was investigated using the Abbott CELL-DYN®1800 automated haematology analyser (USA) using ready-made kits (Abbott Laboratories, Abbott Park, IL, USA). Activities of aspartate aminotransferase (AST) and alanine aminotransferase (ALT) were evaluated using commercial kits (ELITech clinical systems, France). Serum albumin level was determined by kit purchased from STANBIO Company (USA). Protein content was determined by colorimetric method using ready-made kits produced by Instrumentation Laboratory SpA, Inova diagnostics, Milano, Italy.

SMILES: COc1cccc2c1C(=O)c1c(O)c3c(c(O)c1C2=O)C[C@@](O)(C(=O)CO)C[C@@H]3O[C@H]1C[C@H](N)[C@H](O)[C@H](C)O1 [Doxorubicin, reference compound]
- tumour volume [1]: 22 mm^3
- reduction of the increase in solid tumour mass ([1]; compared to SEC control): 59.8%
- solid tumour mass ([1]; SEC control 194 mg): 78 mg
- IC50 (Calf thymus DNA): 31.3 ± 1.8 µM
- IC50 [2]: 9.62 ± 0.5 µM
- Histopathological finding in liver tissue [3]: tissue enhancement like normal group, but still, some hydropic degeneration, pyknosis (arrows) and karyolysis (arrowhead) were shown
- Hb [4]: 7.82 ± 0.27 g/dL
- RBCs count [4]: 5.26 ± 0.38 ×10^6/µL
- Total Protein [4]: 6.73 ± 0.26 g/dL
- WBCs count [4]: 4.11 ± 0.57 ×10^3/µL
